Here are results for 4 compounds from ChEMBL document CHEMBL3112540, “Synthesis of halogenated 4-quinolones and evaluation of their antiplasmodial activity” (Bioorg Med Chem Lett, 2014).

Active and inactive are the calls of the source. No cut-off for these calls is given here.

One series has as its system Staphylococcus aureus. Put plainly: Antimicrobial activity against Staphylococcus aureus. Type of series: functional, organism-based.
The next series relates to Candida albicans. Put plainly: Antimicrobial activity against Candida albicans. In kind it is functional, organism-based.
In series [1] the test system is Plasmodium falciparum. The series is described as follows: Antiplasmodial activity chloroquine-sensitive Plasmodium falciparum NF54 by lactate dehydrogenase assay. Type of series: functional, organism-based.
The subject of another series is Escherichia coli. The series is described as follows: Antimicrobial activity against Escherichia coli. Type of series: functional, organism-based.
The subject of another series is Aspergillus flavus. The series is described as follows: Antimicrobial activity against Aspergillus flavus. Type of series: functional, organism-based.
The test system of series [2] is Plasmodium falciparum. Put plainly: Antiplasmodial activity chloroquine-resistant Plasmodium falciparum Dd2 by lactate dehydrogenase assay. In kind it is functional, organism-based.
In another series the test system is CHO. Put plainly: Cytotoxicity against CHO cells by MTT assay. In kind it is cell-based. As to conditions: Cricetulus griseus.
Another series in a line: in vitro. The following applies: hamster.

Description for in vitro: Selectivity index, ratio of IC50 for CHO cells to IC50 for chloroquine-sensitive Plasmodium falciparum NF54

For the compound `CC(Br)(CBr)Cn1cc(Br)c(=O)c2ccccc21` (stereo unspecified), the outcome in the series on Staphylococcus aureus, in the series on Candida albicans, in the series with Escherichia coli and with Aspergillus flavus was inactive. In the series on Plasmodium falciparum [1], this compound gave an IC50 of 35.2 µM.

For `CC(Br)(CBr)Cn1cc(Br)c(=O)c2ccc(Cl)cc21` (stereo unspecified), the concentration for half-maximal inhibition (IC50) in the series on Plasmodium falciparum [2] came to 4.02 µM; with CHO, 31.8 µM; with Plasmodium falciparum [1], 3.18 µM. For the same compound, the outcome in the series on Staphylococcus aureus, with Candida albicans, with Escherichia coli and in the series with Aspergillus flavus was inactive. The selectivity ratio in the series “in vitro” was found to be 10.

For `CC[C@H]1CN2CCc3cc(OC)c(OC)cc3[C@@H]2C[C@@H]1C[C@H]1NCCc2cc(OC)c(OC)cc21` [EMETINE], the IC50 in the series with CHO turned out to be 0.092 µM.

With `C[C@H]1[C@H](OC(=O)CCC(=O)O)O[C@@H]2O[C@@]3(C)CC[C@H]4[C@H](C)CC[C@@H]1[C@@]24OO3` [ARTESUNATE], the figures for the IC50 in the series with Plasmodium falciparum [2] and in the series on Plasmodium falciparum [1] were 0.046 µM and 0.005 µM, respectively.
